Marks after values point to notes of the source that are not given here. Where only a bound is given, the exact number is not on record here.

This assay has as its system Pseudomonas putida (DSM 25068). Briefly: Minimum inhibitory concentration and synergy index (Kull) of CMIT combinations in Müller-Hinton broth microtiter plates. Format: cell-based. Particulars: 48 hours at 30° C.; for synergy index: SI=Qa/QA+Qb/QB. The text has this:
The synergism of a combination of 5-chloro-2-methylisothiazolin-3-one, containing 0.003 wt. %, in relation to the total proportion of 5-chloro-2-methyl-4-isothiazolin-3-one, of 2-methylisothiazolin-3-one, each time with a biocide/substance selected from the group of 1,2-benzisothiazolin-3-one (BIT), 2-bromo-2-nitropropane-1,3-diol (Bronopol), and zinc, was investigated for a synergistic interaction.
The test organisms used were the Gram-negative bacterium Pseudomonas putida (DSM 25068). For this, mixtures with different concentrations of the respective active substances were prepared and tested in regard to their effect on Pseudomonas putida. The testing was done in Müller-Hinton broth MHB (pH 7.0) with a cell density of 10^6 germs per ml.
The incubation time of the microtiter plates was 48 hours at 30° C. After 48 hours, the batches were evaluated for turbidity due to growth and, in addition, the optical density was determined by photometry. In this way, the minimum inhibitory concentrations (MHK) were determined for the two active substances individually and in combination.
The resulting synergism was represented numerically by calculating the synergy index (SI). The calculation was done by the customary method of F. C. Kull et al., Applied Microbiology, Vol. 9 (1961), p. 538. Loc. cit., the SI is calculated by the following formula: synergy index SI=Qa/QA+Qb/QB Qa=concentration of component A in the mixture A+B QA=concentration of component A as solitary biocide Qb=concentration of component B in the mixture A+B QB=concentration of component B as solitary biocide
If the synergy index has a value over 1, this means that an antagonism is present. If the synergy index takes on the value 1, this means that an addition of the effect of the two biocides/compounds is present. If the synergy index takes on a value below 1, this means that a synergism exists for the two biocides.

[1] abbreviates: CMIT and BIT, below 1 = synergism.
Setting [2] is: single agent, MHB pH 7.0, 10^6 germs per ml.
The mark [3] stands for this setting: CMIT and Bronopol, below 1 = synergism.
[4] abbreviates: CMIT and zinc (ZnCl2), QB assumed 240 ppm.

For `O=c1[nH]sc2ccccc12` [BIT, 1,2-benzisothiazolin-3-one], the synergy index under setting [1] came to 1.00. Also, the “concentration as solitary agent indicating an end point (minimum inhibitory concentration, QA/QB)” value under setting [2] is 100 ppm.

With `O=[N+]([O-])C(Br)(CO)CO` [Bronopol, 2-bromo-2-nitropropane-1,3-diol], the synergy index under setting [3] is 1.00. In addition, the MIC (Pseudomonas putida, DSM25068, single agent, MHB pH 7.0, 10^6 germs per ml, read-out: concentration as solitary agent indicating an end point (minimum inhibitory concentration, QA/QB)) was 15 µg/mL.

Consider `Cn1sc(Cl)cc1=O` [CMIT, 5-chloro-2-methylisothiazolin-3-one], for which the synergy index is given as 1.00 under setting [1], 1.00 under setting [3] and 1.00 under setting [4]. For the same compound, under setting [2], the “concentration as solitary agent indicating an end point (minimum inhibitory concentration, QA/QB)” value is given as 1.5 ppm.

In the case of `[Cl-].[Cl-].[Zn+2]` [Zn, zinc chloride], the synergy index under setting [4] is 1.00. Moreover, under setting [2], the “concentration as solitary agent indicating an end point (minimum inhibitory concentration, QA/QB)” value is recorded as > 240* ppm.

For the origin of these results see patent publication US11116217B2, “Synergistic biocidal compositions containing 5-chloro-2-methylisothiazolin-3-one” (Thor GmbH, priority 2016, dated 2021).
